For 6 compounds, inhibition and Ki results are on record in patent publication US20250042905A1, “DIHYDROPYRROLO[3,4-C]PYRAZOLE DERIVATIVES AND THEIR USE IN DIAGNOSIS” (AC IMMUNE SA, priority 2021, published 2025).

The test concerns the target T1, PD brain-derived alpha-synuclein aggregates (Homo sapiens, UniProt P37840).
T1 construct: PD brain-derived alpha-synuclein aggregates were spotted onto microarray slides; from tissue; host or cells: human Parkinson's disease patient brain
The test is described as follows: Micro-radiobinding competition assay for the determination of binding affinity. Conditions: for inhibition at 0.1 µM: non-radiolabelled example compound at 100 nM, read-out: Competition at 100 nM (%); for inhibition at 0.1 µM / inhibition at 1 µM: competition with tritiated reference alpha-synuclein ligand (20 nM or 30 nM), 100% = excess non-radiolabelled reference ligand; for inhibition at 1 µM: non-radiolabelled example compound at 1 μM, read-out: Competition at 1 μM (%). Here is the method:
Micro-Radiobinding Competition Assay for the Determination of Binding Affinity
PD brain-derived alpha-synuclein aggregates were spotted onto microarray slides. The slides were incubated with tritiated reference alpha-synuclein ligand at 20 nM or 30 nM and the example compounds (non-radiolabelled) at 1 μM and 100 nM. In some cases, the non-radiolabelled example compounds were further assessed for a range of different concentrations, varying from 0.05 nM to 2 μM. After incubation, slides were washed and scanned by a real-time autoradiography system (BeaQuant, ai4R). Quantification of the signal was performed by using the Beamage image analysis software (ai4R). Non-specific signal was determined with an excess of non-radiolabelled reference alpha-synuclein ligand (2 μM) and specific binding was calculated by subtracting the non-specific signal from the total signal. Competition was calculated as percent, where 0% was defined as the specific binding in the presence of vehicle and 100% as the values obtained in the presence of excess of the non-radiolabelled reference alpha-synuclein ligand. Ki values were calculated in GraphPad Prism7 by applying a nonlinear regression curve fit using a one site, specific binding model. All measurements were performed with at least two technical replicates.
Table 4: Assessment of binding affinity by micro-radiobinding competition assay on human PD brain-derived alpha-synuclein aggregates.

Take `O=C1c2cn(-c3cnc(N4CCCC(F)CC4)cn3)nc2CN1c1cccnc1` (stereo not shown) [Example 15, 2-(5-(4-fluoroazepan-1-yl)pyrazin-2-yl)-5-(pyridin-3-yl)-5,6-dihydropyrrolo[3,4-c]pyrazol-4(2H)-one]: the inhibition at 0.1 µM was found to be 39% and the inhibition at 1 µM was found to be 67%.

For the compound `Cc1ccc(N2Cc3nn(-c4cnc(N5CC[C@H](F)C5)cn4)cc3C2=O)cn1` [Example 18, (S)-2-(5-(3-fluoropyrrolidin-1-yl)pyrazin-2-yl)-5-(6-methylpyridin-3-yl)-5,6-dihydropyrrolo[3,4-c]pyrazol-4(2H)-one], the inhibition at 0.1 µM was 38% and the inhibition at 1 µM was determined as 82%.

In the case of `O=C1c2cn(-c3ccc(C(F)(F)F)nn3)nc2CN1c1cccnc1` [Example 35, 5-(pyridin-3-yl)-2-(6-(trifluoromethyl)pyridazin-3-yl)-5,6-dihydropyrrolo[3,4-c]pyrazol-4(2H)-one], the inhibition at 0.1 µM was 29% and the inhibition at 1 µM was 34%.

As for `Cn1cc(N2Cc3nn(-c4ccc(N5CC[C@@H](F)C5)nn4)cc3C2=O)cn1` [Example 21, (R)-2-(6-(3-fluoropyrrolidin-1-yl)pyridazin-3-yl)-5-(1-methyl-1H-pyrazol-4-yl)-5,6-dihydropyrrolo[3,4-c]pyrazol-4(2H)-one], the inhibition at 0.1 µM was found to be 65% and the inhibition at 1 µM was 86%.

Take `O=C1c2cn(-c3ccc(N4CC[C@@H](F)C4)nn3)nc2CN1c1cccnc1` [Example 20, (R)-2-(6-(3-fluoropyrrolidin-1-yl)pyridazin-3-yl)-5-(pyridin-3-yl)-5,6-dihydropyrrolo[3,4-c]pyrazol-4(2H)-one]: the inhibition at 0.1 µM is 38% and the inhibition at 1 µM was determined as 74%. The Ki (concentration range 0.05 nM to 2 μM, nonlinear regression, one site specific binding model) was 422 nM.

In the case of `O=C1c2cn(-c3ccc(N4CCCCC(F)C4)nn3)nc2CN1c1cccnc1` (stereo not shown) [Example 33, 2-(6-(3-fluoroazepan-1-yl)pyridazin-3-yl)-5-(pyridin-3-yl)-5,6-dihydropyrrolo[3,4-c]pyrazol-4(2H)-one], the inhibition at 0.1 µM was determined as 6% and the inhibition at 1 µM is 35%.

A word on the Ki: it is a measure of affinity in units of concentration, obtained from inhibition or displacement.
